Measurements reported in paper PMC12135066, “Design and Preclinical Evaluation of Novel uPAR-Targeting Radiopeptides Modified with an Albumin-Binding Entity” (Molecular Pharmaceutics, 2025).

What was measured:
[1] = Biodistribution studies in HEK-uPAR xenograft-bearing nude mice; conditions: female, mouse, 0.5 nmol, total radioactivity, 5 MBq, 0.5 nmol, decay-corrected, average ± SD, n=3 animals; for tissue uptake at 4 h: 4 h p.i.; for tissue uptake at 24 h: 24 h p.i.
Experimental: (§1) All applicable international, national, and/or institutional guidelines for the care and use of laboratory animals were followed, and the herein reported experiments were carried out according to the guidelines of the Swiss Regulations for Animal Welfare. The preclinical studies were ethically approved by the Cantonal Committee of Animal Experimentation and permitted by the responsible cantonal authorities (License No. 75721). Five-week-old female CD1/nude (Crl:CD1-Foxn ^ nu ) and female immunocompetent FVB (FVB/NCrl) mice were obtained from Charles River Laboratories (Sulzfeld, Germany). All mice were acclimatized for at least 7 days, receiving standard rodent chow ad libitum before being included in the reported studies. The CD1/nude mice were subcutaneously inoculated with HEK-uPAR cells (7 × 10^6 cells in 100 μL PBS) on the right shoulder. […] Typically, it took 3–11 weeks to reach xenograft volumes of 40–600 mm^3 at the time of testing the tissue distribution of the radiopeptides. The immunocompetent FVB mice were used for testing the in vivo stability of the radiopeptides.
(§2) The mice were injected with the radiopeptides (5 MBq, 0.5 nmol, 100 μL) in saline containing 0.05% BSA and sacrificed at 4 and 24 h after injection of the radiopeptides. Selected tissues and organs were collected, weighed, and measured with the γ-counter (1480 Wizard, PerkinElmer). […] A p-value of <0.05 was considered a statistically significant difference (GraphPad Prism software, version 8.3.1).
(§3) Decay-corrected data is shown as average ± SD of n = 3 animals of % injected activity per gram (IA/g) tissue.

[2] = test system: HEK-uPAR xenograft-bearing nude mice; experiment: as above; conditions: average ± SD, n=3 animals
Experimental: as §1, §2, §3

[3] = test system: human serum albumin (HSA); experiment: Albumin-binding properties in human blood plasma (ultrafiltration assay); conditions: ultrafiltration (Amicon, 10 kDa), human blood plasma dilutions in PBS pH 7.4, [HSA]-to-[radiopeptide] 0.01–20000, 0.006 nmol, 37 °C 30 min, γ-counter; inverse ratio of B50, [177Lu]Lu-uPAR-01 set as 1.00; average curve of 3 experiments
Experimental: The relative albumin-binding affinities of the radiopeptides in mouse and human blood plasma were determined using an ultrafiltration assay with Amicon centrifugal filters (cutoff of 10 kDa; Merck Millipore), as previously reported (Supporting Information). A fixed amount of the respective radiopeptide (15 μL, ∼300 kBq, 0.006 nmol) was added to a defined volume (150 μL) of mouse and human blood plasma dilutions to obtain [mouse serum albumin (MSA)]-to-[radiopeptide] and [human serum albumin (HSA)]-to-[radiopeptide] molar concentration ratios of 0.01–12,500 and 0.01–20,000, respectively. The data were analyzed using a semilogarithmic Hill plot with the maximum binding set as 100% (GraphPad Prism software, version 8.3.1).
Determination of the Albumin-Binding Properties
Purpose: The radiopeptides were investigated with regard to their albumin-binding capabilities in vitro
as a measure to predict blood retention in vivo.
Methods: The relative albumin-binding affinity of the radiopeptides in mouse blood plasma (Rockland
Immunochemicals, Inc., U.S.A.) and human blood plasma (Stiftung Blutspende SRK Aargau-
Solothurn, Switzerland) were determined using an ultrafiltration method. The amount of mouse serum
albumin (MSA) and human serum albumin (HSA) in mouse and human blood plasma was defined as
550 μM and 800 μM, respectively, based on measurements using a dry chemistry analyzer (DRI-CHEM
4000i, FUJIFILM, Japan). A fixed amount of radiopeptide (50 MBq/nmol, ~300 kBq, 15 μL, 0.006
nmol) was added to a defined volume (150 μL) of mouse and human blood plasma and various dilutions
thereof in PBS pH 7.4, resulting in defined [MSA]-to-[radiopeptide] or [HSA]-to-[radiopeptide] molar
concentration ratios ranging from 0.01 ‒12500 and 0.01‒20000, respectively, followed by incubation of
the samples at 37 °C for 30 min. Ice-cold PBS (150 µL, pH 7.4) was added before loading the blood
plasma samples on Amicon centrifugal filters (cut -off of 10 kDa; Merck Millipore) followed by
centrifugation (14000 rcf, 30 min, 4 °C) to allow the separation of the plasma protein -bound from the
plasma-unbound (free) fractions of each sample. The inserts of the filter devices were inverted and centrifuged at 200 rcf for 3 min to recover the protein -bound radiopeptide. The activity in the filtrate
and filter unit was measured in a γ-counter (1480 Wizard, PerkinElmer) and the counts were combined
assuming that the fraction retained in the filter membrane was not bound to proteins. The protein -bound
fraction was expressed as percentage of the whole activity (i.e. plasma protein -bound activity, activity
measured in the filtrate and activity measured in the filter (set as 100%) ). The data were analyzed using
a semi-logarithmic plot assuming a maximum binding of 100%. The Hill equation was fitted to the data
points and the half -maximum binding ( B50) based on the average curve obtained from three independent
experiments (GraphPad Prism software, version 8.3 .1). The relative albumin-binding affinit ies of the
reference compound, whose relative binding affinity was set as 1.0. The results were presented as the
B50 value obtained from the average curve from 3 independent experiments.

[4] = Radiolytic stability of the radiopeptides in saline with L-ascorbic acid; conditions: 50 MBq/nmol in saline, 150 MBq/300 µL, L-ascorbic acid (3 mg, 20 µL) and NaOAc (0.5 M, 30 µL), HPLC, product peak relative to t=0 (100%), average ± SD, n=3
Experimental: The radiolytic stability of the radiopeptides (50 MBq/nmol) in saline (150 MBq/300 μL) was assessed in the absence and presence of L-ascorbic acid (3 mg added in a volume of 20 μL). After an incubation period of 1, 4, and 24 h, aliquots of the solutions were analyzed using HPLC. The integrated peak area representing the intact radiopeptide was expressed as the percentage of the sum of all peaks of the chromatogram. The final amount of intact radiopeptide was expressed as the percentage of the product peak obtained at t = 0, which was set as 100% (Supporting Information).
The radiolytic stability of [177Lu]Lu-DOTA-AE105 and the new 177Lu-labeled uPAR-targeting
radiopeptides (50 MBq/nmol) was assessed in vitro in the formulated solution . The radiopeptide s were
diluted in saline to obtain an activity concentration of 150 MBq in 300 µL in the presence of L-ascorbic
acid (3 mg, 20 µL) and NaOAc (0.5 M, 30 µL) to compensate for the acidic pH. Aliquots of the dilutions
were analyzed using HPLC after incubation periods of 1 h, 4 h and 24 h . The integrated peak area
measured for the intact radioligand peak was expressed as the percentage of the sum of the integrated
peak areas of each peak present in the chromatogram. The final amount of intact radiopeptide at t = 1 h,
4 h and 24 h was expressed by correcting the obtained percentage of the product peak to this peak
obtained at t = 0, which was set as 100%.

[5] = Stability of the radiopeptides in human blood plasma
[6] = n-Octanol/PBS distribution coefficients (logD values); conditions: n-octanol/PBS pH 7.4, pH 7.4
Experimental: The radiopeptides diluted in phosphate-buffered saline (PBS) pH 7.4 (25 μL, ∼0.5 MBq, 0.01 nmol) were added to a mixture of PBS pH 7.4 (1475 μL) and n-octanol (1500 μL). The vials were vortexed vigorously for 1 min, followed by centrifugation (560 rcf, 6 min) for phase separation. Aliquots were taken from each phase and measured in a γ-counter (1480 Wizard, PerkinElmer). The distribution coefficients were calculated as the logarithmic value of the ratio of counts per minute (cpm) measured in the n-octanol phase relative to the cpm measured in the PBS phase.
Methods: The logD value of all radiopeptides was determined in a mixture of n-octanol and phosphate
buffered saline (PBS) pH 7.4 using phase separation followed by liquid-liquid extraction.
polystyrene radioimmunoassay (RIA) tubes were prepared for each radiopeptide with 1.5 mL n-octanol
and 1.475 mL PBS pH 7.4. The RIA tubes were rigorously vortexed and subsequently let to stand so
that the phase separation could take place. The radiopeptides (50 MBq/nmol) were diluted with PBS
pH 7.4 to obtain an activity concentration of 10 MBq/0.5 mL. A volume of 25 μL of these solutions
was added to each RIA tube (25 µL, ~0.5 MBq, 0.01 nmol) followed by vortexing for 1 min.
separation was achieved by centrifugation at 560 rcf for 6 min. The activity in the n-octanol and PBS
phase, respectively, was measured in a γ-counter (Wallac Wizard 1480, PerkinElmer).
coefficients were calculated as the logarithm of the ratio of counts per minute (cpm) measured in the n-
octanol phase relative to the cpm measured in the PBS pH 7.4 phase.
as described above three independent times for each radiopeptide.

human uPAR = target: T1, human uPAR (Homo sapiens, UniProt Q03405); experiment: uPAR-binding affinity (KD values), saturation experiments with HEK-uPAR cells; conditions: saturation binding on HEK-uPAR cells, on ice (4 °C) 1 h, 1–1600 nM radiopeptide, ± AE105 40 µM; γ-counter; nonlinear regression; average ± SD, n=3
T1 construct: host or cells: HEK cells (HEK-uPAR)
Experimental: To determine the uPAR-binding affinity of the radiopeptides, saturation experiments were performed using HEK-uPAR cells in 48-well plates (Supporting Information). The cells were incubated on ice for 1 h in the presence or absence of excess AE105 (final concentration of 40 μM) together with the respective radiopeptide at a concentration range of 1–1600 nM. After rinsing the cells with PBS, they were lysed with an aqueous NaOH solution (1 M, 600 μL), transferred to radioimmunoassay tubes, and measured in a γ-counter (1480 Wizard, PerkinElmer). The K D values were determined by plotting the specific binding (values of samples incubated without AE105 minus the values of samples incubated with AE105) against the molar concentration of the added peptide. A nonlinear regression analysis was performed using GraphPad Prism software (version 8.3.1). The results were expressed as average ± SD of n = 3 independently performed experiments. […]
7. Determination of uPAR-Binding Affinity (KD Values)
Purpose: The uPAR-binding affinity of the radiopeptides were determined to investigate the impact of structural changes on the receptor binding.
Methods: HEK-uPAR cells were seeded in poly-D-lysine-coated 48-well plates (0.25 × 10 6 in 0.5 mL per well) using DMEM cell culture medium with supplements. The cells were incubated at 37 °C and 5% CO2 overnight to allow adhesion and growth. After removing the supernatant, the well plates with HEK-uPAR cells were placed on ice to prevent internalization of the radiopeptides. The cells were rinsed with cold PBS (0.5 mL, pH 7.4) followed by the addition of DMEM cell culture medium without supplements (450 µL/well) in the presence or absence of AE105 ( final concentration 40 µM) as a receptor-blocking agent. The radiopeptides (5 MBq/nmol) were diluted in PBS to obtain peptide concentrations ranging from 10 ‒16000 nM. From each dilution, 50 µL were added to each well to obtain final peptide concentrations of 1 nM to 1600 nM. The cells were incubated at 4 °C for 1 h before rinsing twice with PBS (0.5 mL, pH 7.4). The cells were lysed using an aqueous NaOH solution (1 M, 600 µL) and the lysates were transferred to RIA tubes for counting the activity in a γ-counter (1480 Wizard, PerkinElmer) . The KD values were determined by plotting specific binding (total binding minus unspecific binding) against the molar concentration of the added radiopeptide using GraphPad Prism (version 8.3.1). the results were then expressed as average K D values ± SD of n = 3 independent […]
Results: The results are reported in the main article.

[7] = Stability of the radiopeptides in mouse blood plasma
Experimental: The radiopeptides (50 MBq/nmol) stabilized with L-ascorbic acid were diluted in mouse and human blood plasma and incubated at 37 °C. Aliquots were taken after 1, 4, and 24 h and analyzed using reversed-phase thin-layer chromatography (TLC) (Supporting Information).
aProduct peak expressed as percentage of the sum of integrated peak areas of the entire chromatogram relative to
the value obtained immediately after labeling (set as 100%), average ± standard deviation (SD) (n=3).
Stability of the Radiopeptides in Mouse and Human Blood Plasma
Purpose: The stability of the radiopeptides was assessed in mouse and human blood plasma as an
indication for their in vivo stability.
Methods: The radiopeptides (50 MBq/nmol) stabilized with L-ascorbic acid were diluted in mouse
blood plasma (Lot: 32321, Rockland Immunochemicals Inc., U.S.A.) or in human blood plasma
(Stiftung Blutspende SRK Aargau -Solothurn, Switzerland) at a concentration of 10 MBq/200 µL and
incubated at 37 °C over a 24 h time period. Control samples were prepared by diluting the radiopeptides
in saline at the same activity concentration. Aliquots of each dilution were taken after 1 h, 4 h, and 24 h
(2 µL, ~100 kBq) and investigated employing thin layer chromatography (TLC) methods on reversed-
phase TLC plates (MERCK Analytical Chromatography, TLC Silica gel 60 RP -18 F254s) as stationary
phase and a 3/7 (v/v) mixture of acetonitrile /citrate buffer (0.1 M, pH 5.5) as mobile phase. A dilution
of [177Lu]LuCl3/HCl 0.04 M (10 MBq/200 µL) was added on each TLC plate. The developed and dried
TLC plates were exposed to a phosphor screen (Super resolution screen PSR10450013, PerkinElmer)
for 1 min. The screen was read with a Cyclone Plus phosphor imager (PerkinElmer) and the peak
quantification was performed using OptiQuant Software (version 5.0).

[8] = CD1/nude (Crl:CD1-Foxn nu), HEK-uPAR xenograft, HEK-uPAR xgft
[9] = CD1/nude (Crl:CD1-Foxn nu), liver, Liver
[10] = CD1/nude, blood, 5 MBq (0.5 nmol)
[11] = CD1/nude, bone, 5 MBq (0.5 nmol)
[12] = CD1/nude, brain, 5 MBq (0.5 nmol)
[13] = CD1/nude, heart, 5 MBq (0.5 nmol)
[14] = CD1/nude, intestines, 5 MBq (0.5 nmol)
[15] = CD1/nude, kidneys, 5 MBq (0.5 nmol)
[16] = CD1/nude, liver, 5 MBq (0.5 nmol)
[17] = CD1/nude, lung, 5 MBq (0.5 nmol)
[18] = CD1/nude, muscle, 5 MBq (0.5 nmol)
[19] = CD1/nude, pancreas, 5 MBq (0.5 nmol)
[20] = CD1/nude, salivary glands, 5 MBq (0.5 nmol)
[21] = CD1/nude, spleen, 5 MBq (0.5 nmol)
[22] = CD1/nude, stomach, 5 MBq (0.5 nmol)

T1 sequence (Q03405 23-335): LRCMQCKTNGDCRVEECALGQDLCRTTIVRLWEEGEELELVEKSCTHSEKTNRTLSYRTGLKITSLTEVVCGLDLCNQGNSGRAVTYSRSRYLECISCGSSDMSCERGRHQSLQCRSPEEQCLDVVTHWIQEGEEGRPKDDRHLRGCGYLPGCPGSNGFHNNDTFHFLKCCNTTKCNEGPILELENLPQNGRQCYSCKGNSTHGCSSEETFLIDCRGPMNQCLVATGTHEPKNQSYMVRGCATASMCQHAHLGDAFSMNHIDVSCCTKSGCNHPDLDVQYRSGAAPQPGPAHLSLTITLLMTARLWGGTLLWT

- tissue uptake at 4 h [1, 8]: < 1 %ID/g
- tissue uptake at 24 h [1, 8]: 0.4 ± 0.19 %ID/g
- tissue uptake at 4 h [1, 9]: < 0.2 %ID/g
- tissue uptake at 24 h [1, 9]: < 0.2 %ID/g
- tissue uptake at 4 h ([1]; CD1/nude (Crl:CD1-Foxn nu), whole blood, Blood): < 0.1 %ID/g
- tissue uptake at 4 h [1, 10]: 0.08 ± 0.01 %ID/g
- tissue uptake at 24 h [1, 10]: < 0.05 %ID/g
- tissue uptake at 4 h [1, 11]: 0.38 ± 0.03 %ID/g
- tissue uptake at 24 h [1, 11]: 0.84 ± 0.1 %ID/g
- tissue uptake at 4 h [1, 12]: < 0.05 %ID/g
- tissue uptake at 24 h [1, 12]: < 0.05 %ID/g
- tissue uptake at 4 h [1, 13]: 0.06 ± 0.01 %ID/g
- tissue uptake at 24 h [1, 13]: < 0.05 %ID/g
- tissue uptake at 4 h [1, 14]: 0.31 ± 0.03 %ID/g
- tissue uptake at 24 h [1, 14]: 0.18 ± 0.02 %ID/g
- tissue uptake at 4 h [1, 15]: 1.5 ± 0.1 %ID/g
- tissue uptake at 24 h [1, 15]: 1.3 ± 0.1 %ID/g
- tissue uptake at 4 h [1, 16]: 0.1 ± 0.01 %ID/g
- tissue uptake at 24 h [1, 16]: 0.17 ± 0.01 %ID/g
- tissue uptake at 4 h [1, 17]: 0.3 ± 0.02 %ID/g
- tissue uptake at 24 h [1, 17]: 0.21 ± 0.01 %ID/g
- tissue uptake at 4 h [1, 18]: < 0.05 %ID/g
- tissue uptake at 24 h [1, 18]: < 0.05 %ID/g
- tissue uptake at 4 h [1, 19]: 0.06 ± 0.01 %ID/g
- tissue uptake at 24 h [1, 19]: 0.06 ± 0.01 %ID/g
- tissue uptake at 4 h [1, 20]: 0.09 ± 0.01 %ID/g
- tissue uptake at 24 h [1, 20]: 0.09 ± 0.01 %ID/g
- tissue uptake at 4 h [1, 21]: 0.18 ± 0.02 %ID/g
- tissue uptake at 24 h [1, 21]: 0.23 ± 0.04 %ID/g
- tissue uptake at 4 h [1, 22]: 0.15 ± 0.03 %ID/g
- tissue uptake at 24 h [1, 22]: 0.17 ± 0.03 %ID/g
- HEK-uPAR xgft ([2]; 4 h p.i., 5 MBq, 0.5 nmol, decay-corrected): 0.87 ± 0.05 % IA/g
- Xenograft-to-blood ratio ([2]; 4 h p.i.): 11 ± 1
- Xenograft-to-kidney ratio ([2]; 4 h p.i.): 0.58 ± 0.03
- Xenograft-to-liver ratio ([2]; 4 h p.i.): 8.6 ± 0.4
- Xenograft-to-blood ratio ([2]; 24 h p.i.): 32 ± 13
- Xenograft-to-kidney ratio ([2]; 24 h p.i.): 0.33 ± 0.14
- Xenograft-to-liver ratio ([2]; 24 h p.i.): 2.4 ± 0.9
- Relative albumin-binding affinity, human blood plasma [3]: 0.01
- radiolytic stability, % intact radiopeptide ([4]; 1 h): 98 ± 2%
- radiolytic stability, % intact radiopeptide ([4]; 4 h): 98 ± 1%
- Intact radiopeptide in human blood plasma [%] ([5]; 24 h, human blood plasma, 10 MBq/200 µL, 50 MBq/nmol, stabilized with L-ascorbic acid, 37 °C, reversed-phase TLC, phosphor imager, relative to t=0 (100%), average ± SD, n=3): ~4.5%
- remaining at 1 h, 10 MBq/200 µL ([5]; human, blood plasma): 71 ± 3%
- remaining at 24 h, 10 MBq/200 µL ([5]; human, blood plasma): 4.5 ± 1.2%
- remaining at 4 h, 10 MBq/200 µL ([5]; human, human blood plasma): ~13%
- logD [6]: -1.38 ± 0.18
- Kd (human uPAR): 20 ± 1 nM
- Intact radiopeptide in mouse blood plasma [%] ([7]; 24 h, mouse blood plasma, 10 MBq/200 µL, 50 MBq/nmol, stabilized with L-ascorbic acid, 37 °C, reversed-phase TLC, phosphor imager, relative to t=0 (100%), average ± SD, n=3): ~4.5%
- remaining at 1 h, 10 MBq/200 µL ([7]; mouse, blood plasma): 61 ± 6%
- remaining at 24 h, 10 MBq/200 µL ([7]; mouse, blood plasma): 4.6 ± 2.2%
- remaining at 4 h, 10 MBq/200 µL ([7]; mouse, mouse blood plasma): ~13%
Compound: CC(C)C[C@H](NC(=O)[C@H](Cc1ccc(O)cc1)NC(=O)[C@@H](CCCNC(=N)N)NC(=O)[C@@H](CO)NC(=O)[C@H](Cc1ccccc1)NC(=O)[C@H](CC1CCCCC1)NC(=O)[C@H](CC(=O)O)NC(=O)CN1CCN(CC(=O)O)CCN(CC(=O)O)CCN(CC(=O)O)CC1)C(=O)N[C@@H](Cc1c[nH]c2ccccc12)C(=O)N[C@@H](CO)C(N)=O [[^177Lu]Lu-DOTA-AE105, metal not drawn, reference compound]
